According to the supplement of paper PMC10307832:

Legend:
Assay in all cases: relative viability (nuclei count vs DMSO), 5 days (fraction); higher = more cells survive
[1] = compound: CC1=NN=C(O1)C2=NN=C(C=C2)N3CCC(CC3)OC4=C(C=CC(=C4)F)Cl
Method in brief: (§1)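 After an overnight hold at 37 °C, lung cancer cell lines in 1536-well plates were pinned with five library-drug doses (not always all listed), each √10 from the next, on vehicle-anchored plates. The cells stayed 5 days without fresh medium, then a one-step fix, permeabilisation and Hoechst stain preceded 4× imaging and MetaXpress nuclear counts. A plate passed only with control CV under 25% and at least one doubling. Viability is the median, over plates, of treated-well nuclei relative to vehicle-well nuclei.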

Tosedostat = compound: CC(C)C[C@@H](C(=O)N[C@H](C(=O)OC1CCCC1)c1ccccc1)[C@H](O)C(=O)NO [Tosedostat]
Method in brief: as §1

[2] = compound: CC1=NN=C(O1)C2=NN=C(C=C2)N3CCC(CC3)OC4=C(C=CC(=C4)F)Cl + Nc1nc2[nH]cc(CCc3ccc(C(=O)N[C@@H](CCC(=O)O)C(=O)O)cc3)c2c(=O)[nH]1 [Pemetrexed] (partner 0.2 µM)
Method in brief: (§2)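 Dosing by pin tool came one day after lung cancer cell lines were seeded in 1536-well plates, using either one drug or a fixed anchor-drug dose plus five library-drug doses (not always all listed) in √10 steps. After 5 days, nuclei were counted on 4× images. Relative viability is treated-well nuclei count divided by vehicle-well nuclei count, and values are medians of duplicate plates.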

Tosedostat + OSI-027 = compound: CC(C)C[C@@H](C(=O)N[C@H](C(=O)OC1CCCC1)c1ccccc1)[C@H](O)C(=O)NO [Tosedostat] + COc1cccc2cc(-c3nc([C@H]4CC[C@H](C(=O)O)CC4)n4ncnc(N)c34)[nH]c12 [OSI-027] (partner 0.5 µM)
Method in brief: as §2

| Cell Line | relative viability ([1]; 0.253 µM) | relative viability ([1]; 0.8 µM) | relative viability ([1]; 2.53 µM) | relative viability ([1]; 8 µM) | relative viability (Tosedostat; 0.02 µM) | relative viability (Tosedostat; 0.06325 µM) | relative viability (Tosedostat; 0.2 µM) | relative viability (Tosedostat; 0.6325 µM) | relative viability (Tosedostat; 2 µM) | relative viability ([2]; first compound 0.253 µM) | relative viability ([2]; first compound 0.8 µM) | relative viability ([2]; first compound 2.53 µM) | relative viability ([2]; first compound 8 µM) | relative viability (Tosedostat + OSI-027; first compound 0.02 µM) | relative viability (Tosedostat + OSI-027; first compound 0.06325 µM) | relative viability (Tosedostat + OSI-027; first compound 0.2 µM) | relative viability (Tosedostat + OSI-027; first compound 0.6325 µM) | relative viability (Tosedostat + OSI-027; first compound 2 µM) |
| --- | --- | --- | --- | --- | --- | --- | --- | --- | --- | --- | --- | --- | --- | --- | --- | --- | --- | --- |
| 201T | 0.481 | 0.523 | 0.553 | 0.503 | 1 | 1 | 1.02 | 1.06 | 1.01 | 0.314 | 0.255 | 0.316 | 0.339 | 0.761 | 0.818 | 0.755 | 0.949 | 0.718 |
| A549 | 0.69 | 0.611 | 0.575 | 0.541 | 1.05 | 0.945 | 0.922 | 0.929 | 0.815 | – | – | – | – | – | – | – | – | – |
| A-427 | 0.904 | – | 0.956 | 0.789 | 1.04 | 0.955 | 0.992 | 0.941 | 0.908 | 1.03 | 0.792 | 0.922 | 0.947 | 0.437 | 0.548 | 0.534 | 0.484 | 0.406 |
| ABC-1 | 0.374 | 0.421 | 0.473 | 0.472 | 1.24 | 0.869 | 0.911 | 0.928 | 0.765 | – | – | – | – | 0.588 | 0.546 | 0.423 | 0.391 | 0.406 |
| BEN | 0.895 | 0.959 | 0.974 | 0.821 | 1.01 | 1.03 | 1.09 | 1.3 | 1.2 | 0.736 | 0.84 | 0.806 | 0.741 | 0.298 | 0.292 | 0.286 | 0.31 | 0.326 |
| CAL-12T | 0.935 | 0.859 | 0.821 | 0.742 | 1.16 | 0.948 | 1.03 | 0.892 | 0.784 | 0.946 | 1.05 | 1.03 | 0.9 | 0.9 | 0.769 | 0.76 | 0.572 | 0.457 |
| COR-L23 | 0.826 | 0.891 | 0.797 | 0.655 | 1.13 | 1 | 0.965 | 1.01 | 1.06 | 0.179 | 0.193 | 0.176 | 0.181 | 0.965 | 0.746 | 0.69 | 0.65 | 0.64 |
| COR-L 105 | 0.902 | 0.956 | 0.989 | 1.07 | 1.03 | 0.906 | 0.81 | 0.784 | 0.697 | 1.2 | 1.07 | 1.18 | 1.29 | 0.605 | 0.731 | 0.647 | 0.606 | 0.62 |
| Calu-6 | 0.673 | 0.682 | 0.694 | 0.61 | 1.08 | 0.925 | 0.928 | 0.831 | 0.733 | – | – | – | – | – | – | – | – | – |
| ChaGo-K-1 | 0.736 | 0.681 | 0.687 | 0.671 | 1.07 | 0.975 | 0.969 | 1.02 | 0.771 | 0.245 | 0.265 | 0.248 | 0.266 | 0.54 | 0.525 | 0.577 | 0.617 | 0.498 |
| EBC-1 | 0.663 | 0.735 | 0.81 | 0.606 | 0.994 | 0.934 | 0.946 | 0.785 | 0.683 | – | – | – | – | – | – | – | – | – |
| EKVX | 0.475 | 0.405 | 0.432 | 0.479 | 0.973 | 0.972 | 0.944 | 0.859 | 0.911 | 0.269 | 0.263 | 0.343 | 0.348 | 0.718 | 0.764 | 0.673 | 0.696 | 0.748 |
| EMC-BAC-2 | 0.98 | 0.872 | 0.891 | 0.615 | 1.09 | 1.16 | 0.952 | 0.919 | 0.811 | 0.452 | 0.419 | 0.485 | 0.527 | 0.4 | 0.405 | 0.412 | 0.416 | 0.319 |
| EPLC-272H | 0.987 | 0.716 | 0.887 | 0.828 | 1.06 | 0.984 | 0.763 | 0.593 | 0.428 | 0.313 | 0.339 | 0.285 | 0.371 | 0.281 | 0.265 | 0.301 | 0.263 | 0.24 |
| H3255 | 0.662 | 0.688 | 0.635 | 0.727 | 0.994 | 0.869 | 0.94 | 0.852 | 0.886 | 0.506 | 0.533 | 0.518 | 0.577 | 0.67 | 0.522 | 0.603 | 0.513 | 0.509 |
| HARA | 0.484 | 0.387 | 0.538 | 0.355 | 1.15 | 0.977 | 0.922 | 0.887 | 0.774 | 0.245 | 0.26 | 0.239 | 0.231 | 0.695 | 0.492 | 0.421 | 0.447 | 0.382 |
| HCC-15 | 0.463 | 0.449 | 0.456 | 0.464 | 1.05 | 0.89 | 0.996 | 0.901 | 0.848 | 0.215 | 0.239 | 0.226 | 0.214 | 0.751 | 0.718 | 0.579 | 0.467 | 0.46 |
| HCC-44 | 0.492 | 0.542 | 0.509 | 0.517 | 1.09 | 1.01 | 0.982 | 0.905 | 0.628 | 0.264 | 0.378 | 0.282 | 0.31 | 0.538 | 0.592 | 0.384 | 0.513 | 0.374 |
| HCC-78 | 0.659 | 0.615 | 0.578 | 0.551 | 0.938 | 1.04 | 1 | 1.04 | 0.958 | 0.888 | 0.879 | 0.872 | 0.853 | 0.33 | 0.377 | 0.406 | 0.364 | 0.376 |
